Experimental data reported in patent publication US10093630B2, “Pyrazole compounds and methods of making and using same” (ABIDE THERAPEUTICS, INC., priority 2014, dated 2018).
Where two headings read alike, the source gives them in different places.

Experiments:
Test in all cases: In vitro competitive activity-based protein profiling (gel-based, FP-Rh or HT-01 probe)
Type in all cases: biochemical
ABHD6 = target: T1, ABHD6 (Mus musculus, UniProt Q8R2Y0); details: for inhibition at 1 µM: 1 μM inhibitor, read-out: % Inhibition at 1 μM, C = ABHD6; for inhibition at 10 µM: 10 μM inhibitor, read-out: % Inhibition at 10 μM, C = ABHD6; for IC50: mouse brain membrane fraction or cell lysates, 30 min preincubation at 37° C., read-out: Mouse (IC50 value, nM) ABHD6
T1 construct: Proteomes (mouse brain membrane fraction or cell lysates); from tissue; host or cells: mouse brain membrane fraction (or cell lysates, not specified)
T1 sequence (Q8R2Y0 1-336): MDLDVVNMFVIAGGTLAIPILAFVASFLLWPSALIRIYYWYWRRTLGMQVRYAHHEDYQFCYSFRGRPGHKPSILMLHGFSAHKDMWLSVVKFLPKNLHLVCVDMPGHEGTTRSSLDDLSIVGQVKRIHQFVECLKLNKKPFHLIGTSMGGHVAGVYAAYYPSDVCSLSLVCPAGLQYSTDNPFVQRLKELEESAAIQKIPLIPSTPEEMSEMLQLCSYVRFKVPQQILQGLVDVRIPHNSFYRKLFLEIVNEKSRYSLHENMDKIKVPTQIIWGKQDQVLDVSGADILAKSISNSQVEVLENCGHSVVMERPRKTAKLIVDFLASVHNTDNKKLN
In short: (§1)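 Read-out: fluorescent band intensity on SDS-PAGE gels, reporting remaining serine hydrolase activity. Before that, proteome (mouse brain membranes or cell lysates, 1.0 mg/mL) saw a range of inhibitor concentrations for 30 min at 37° C, followed by 30 min probe labelling (FP-Rh or HT-01).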

FAAH = target: T2, FAAH (Mus musculus, UniProt O08914); details: for inhibition at 1 µM: 1 μM inhibitor, read-out: % Inhibition at 1 μM, B = FAAH; for inhibition at 10 µM: 10 μM inhibitor, read-out: % Inhibition at 10 μM, B = FAAH; for IC50: mouse brain membrane fraction or cell lysates, 30 min preincubation at 37° C., read-out: Mouse (IC50 value, nM) FAAH
T2 construct: Proteomes (mouse brain membrane fraction or cell lysates); from tissue; host or cells: mouse brain membrane fraction (or cell lysates, not specified)
T2 sequence (O08914 1-579): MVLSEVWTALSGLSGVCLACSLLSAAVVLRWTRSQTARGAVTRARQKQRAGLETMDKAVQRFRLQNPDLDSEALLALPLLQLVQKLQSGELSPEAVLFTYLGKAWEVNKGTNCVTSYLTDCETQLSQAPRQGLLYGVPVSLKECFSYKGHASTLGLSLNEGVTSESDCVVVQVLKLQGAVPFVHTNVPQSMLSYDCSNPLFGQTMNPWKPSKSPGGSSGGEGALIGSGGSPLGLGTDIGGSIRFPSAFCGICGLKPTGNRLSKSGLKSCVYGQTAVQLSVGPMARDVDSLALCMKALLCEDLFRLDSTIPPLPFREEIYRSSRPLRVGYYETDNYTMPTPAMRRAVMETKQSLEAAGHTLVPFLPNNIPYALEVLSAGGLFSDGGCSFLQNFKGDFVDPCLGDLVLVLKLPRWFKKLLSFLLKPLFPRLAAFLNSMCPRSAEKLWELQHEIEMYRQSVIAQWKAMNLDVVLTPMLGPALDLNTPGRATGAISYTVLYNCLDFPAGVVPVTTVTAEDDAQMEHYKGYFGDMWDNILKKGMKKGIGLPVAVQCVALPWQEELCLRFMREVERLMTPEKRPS
In short: as §1

MAGL = target: T3, MAGL (Mus musculus, UniProt O35678); details: for inhibition at 1 µM: 1 μM inhibitor; for inhibition at 10 µM: 10 μM inhibitor; for IC50: mouse brain membrane fraction or cell lysates, 30 min preincubation at 37° C., read-out: Mouse (IC50 value, nM) MAGL
T3 construct: Proteomes (mouse brain membrane fraction or cell lysates); from tissue; host or cells: mouse brain membrane fraction (or cell lysates, not specified)
T3 sequence (O35678 1-303): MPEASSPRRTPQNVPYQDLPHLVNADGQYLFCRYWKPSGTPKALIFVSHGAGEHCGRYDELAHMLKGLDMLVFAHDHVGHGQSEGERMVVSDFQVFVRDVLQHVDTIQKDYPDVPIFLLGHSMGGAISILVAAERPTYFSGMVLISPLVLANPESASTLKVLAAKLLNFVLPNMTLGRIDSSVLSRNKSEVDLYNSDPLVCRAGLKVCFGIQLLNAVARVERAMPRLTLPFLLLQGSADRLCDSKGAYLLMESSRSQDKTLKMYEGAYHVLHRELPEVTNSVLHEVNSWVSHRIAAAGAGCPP
In short: as §1

PLA2G7 = target: T4, PLA2G7 (Mus musculus, UniProt Q60963); details: for inhibition at 10 µM: 10 μM inhibitor, read-out: % Inhibition at 10 μM, D = PLA2G7; for inhibition at 1 µM: 1 μM inhibitor, read-out: % Inhibition at 1 μM, D = PLA2G7; for IC50: mouse brain membrane fraction or cell lysates, 30 min preincubation at 37° C.
T4 construct: Proteomes (mouse brain membrane fraction or cell lysates); from tissue; host or cells: mouse brain membrane fraction (or cell lysates, not specified)
T4 sequence (Q60963 22-440): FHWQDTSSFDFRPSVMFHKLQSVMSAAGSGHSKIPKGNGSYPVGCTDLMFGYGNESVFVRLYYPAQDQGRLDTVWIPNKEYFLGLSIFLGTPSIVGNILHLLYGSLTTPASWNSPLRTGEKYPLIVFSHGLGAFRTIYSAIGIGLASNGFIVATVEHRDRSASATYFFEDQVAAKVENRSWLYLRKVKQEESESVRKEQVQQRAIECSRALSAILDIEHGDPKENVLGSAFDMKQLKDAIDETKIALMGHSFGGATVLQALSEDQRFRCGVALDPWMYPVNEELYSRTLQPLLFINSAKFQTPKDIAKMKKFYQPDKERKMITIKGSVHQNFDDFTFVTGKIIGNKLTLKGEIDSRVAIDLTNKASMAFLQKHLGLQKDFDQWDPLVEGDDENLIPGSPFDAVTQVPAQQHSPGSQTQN
In short: as §1

Structure (SMILES)	inhibition at 1 µM (ABHD6) [%]	inhibition at 10 µM (ABHD6) [%]	IC50 (ABHD6) [nM]	inhibition at 1 µM (FAAH) [%]	inhibition at 10 µM (FAAH) [%]	inhibition at 1 µM (MAGL) [%]	inhibition at 10 µM (MAGL) [%]	inhibition at 10 µM (PLA2G7) [%]	inhibition at 1 µM (PLA2G7) [%]	inhibition at 1 µM (ABHD6; gel-based competitive ABPP) [%]	inhibition at 1 µM (FAAH; gel-based competitive ABPP) [%]	inhibition at 1 µM (MAGL; gel-based competitive ABPP) [%]	inhibition at 1 µM (PLA2G7; gel-based competitive ABPP) [%]	IC50 (FAAH) [nM]	IC50 (MAGL) [nM]	IC50 (PLA2G7) [nM]
O=C(N1CCN(Cc2ccc(C(F)(F)F)cc2N2CCCC2)CC1)n1cc(-c2ccc(C(F)(F)F)cc2)cn1 [Example 116, (4-(2-(Pyrrolidin-1-yl)-4-(trifluoromethyl)benzyl)piperazin-1-yl)(4-(4-(trifluoromethyl)phenyl)-1H-pyrazol-1-yl)methanone]	> 75	> 75	> 1000	< 25	< 25	25 to 75	> 75	> 75								
O=C(N1CCN(CC2CC2)CC1)n1cc(Cl)cn1 [Example 215, (4-Chloro-1H-pyrazol-1-yl)(4-(cyclopropylmethyl)piperazin-1-yl)methanone]	> 75	> 75		> 75	> 75	25 to 75	> 75	> 75	< 25							
COc1cc(-c2ccccc2)ccc1CN1CCN(C(=O)n2cc(C(F)(F)F)cn2)CC1 [Example 144, (4-((3-Methoxybiphenyl-4-yl)methyl)piperazin-1-yl)(4-(trifluoromethyl)-1H-pyrazol-1-yl)methanone]	> 75	> 75		> 75	> 75	> 75	> 75	> 75	> 75							
Cc1cnn(C(=O)N2CCCN(C(=O)c3ccccc3)CC2)c1 [Example 169, (4-Benzoyl-1,4-diazepan-1-yl)(4-methyl-1H-pyrazol-1-yl)methanone]		25 to 75			< 25		25 to 75	< 25								
CCN(Cc1ccc(OC)cc1)C(=O)n1cc(C)cn1 [Example 260, N-Ethyl-N-(4-methoxybenzyl)-4-methyl-1H-pyrazole-1-carboxamide]										< 25	< 25	< 25	< 25			
CCN(Cc1ccc(C)cc1)C(=O)n1cc(C(F)(F)F)cn1 [Example 256, N-Ethyl-N-(4-methylbenzyl)-4-(trifluoromethyl)-1H-pyrazole-1-carboxamide]			> 1000							< 25	> 75	25 to 75	< 25	< 100	> 1000	> 1000
CS(=O)(=O)N1CCCN(C(=O)n2cc(C#N)cn2)CC1 [Example 178, 1-(4-(methylsulfonyl)-1,4-diazepane-1-carbonyl)-1H-pyrazole-4-carbonitrile]	< 25	> 75		< 25	> 75	< 25	> 75	25 to 75	< 25							
CCN(Cc1cccc(N2CCOCC2)c1)C(=O)n1cc(C(F)(F)F)cn1 [Example 261, N-Ethyl-N-(3-morpholinobenzyl)-4-(trifluoromethyl)-1H-pyrazole-1-carboxamide]			> 1000							25 to 75	> 75	25 to 75	< 25	< 100	100 to 1000	> 1000
CCN(Cc1ccc(N2CCOCC2)cc1)C(=O)n1cc(C#N)cn1 [Example 263, 4-Cyano-N-ethyl-N-(4-morpholinobenzyl)-1H-pyrazole-1-carboxamide]			> 1000							25 to 75	> 75	> 75	< 25	< 100	100 to 1000	> 1000
